How the values were obtained:
Type in all cases: in vivo
[1] = tested on: Green peach aphid (Myzus persicae, mixed life stages); assay: Green peach aphid (Myzus persicae, mixed life stages) foliar spray on infested bell pepper plants; conditions: 120 h, after 5 days, read-out: mortality in comparison with untreated controls
Procedure: II.2 Green Peach Aphid (Myzus persicae, Mixed Life Stages)
(§1) The active compounds were formulated in cyclohexanone as a 10,000 ppm solution supplied in 1.3 ml ABgene® tubes. These tubes were inserted into an automated electrostatic sprayer equipped with an atomizing nozzle and they served as stock solutions for which lower dilutions were made in 50% acetone:50% water (v/v). A nonionic surfactant (Kinetic®) was included in the solution at a volume of 0.01% (v/v).
Bell pepper plants at the first true-leaf stage were infested prior to treatment by placing heavily infested leaves from the main colony on top of the treatment plants. Aphids were allowed to transfer overnight to accomplish an infestation of 30-50 aphids per plant and the host leaves were removed. The infested plants were then sprayed by an automated electrostatic plant sprayer equipped with an atomizing spray nozzle. The plants were dried in the sprayer fume hood, removed, and then maintained in a growth room under fluorescent lighting in a 24-hr photoperiod at 25° C. and 20-40% relative humidity. Aphid mortality on the treated plants, relative to mortality on untreated control plants, was determined after 5 days.

[2] = tested on: Cowpea aphid (Aphis craccivora); assay: Cowpea aphid (Aphis craccivora) spray on potted cowpea plants; conditions: assessed after 24, 72, and 120 hours, read-out: mortality in comparison with untreated controls
Procedure: II.3 Cowpea Aphid (Aphis craccivora)
The active compounds were formulated in 50:50 (vol:vol) acetone:water. The test solution was prepared at the day of use.
Potted cowpea plants colonized with 100-150 aphids of various stages were sprayed after the pest population had been recorded. Population reduction was assessed after 24, 72, and 120 hours.

[3] = tested on: green peach aphid (Myzus persicae); assay: Green peach aphid (Myzus persicae) systemic test, artificial diet under membrane; conditions: 72 h, 2500 ppm in aphid diet, 3 days, read-out: mortality in comparison with untreated controls
Excerpt: II.6 Activity Against Green Peach Aphid (Myzus persicae)
For evaluating control of green peach aphid (Myzus persicae) through systemic means the test unit consisted of 96-well-microtiter plates containing liquid artificial diet under an artificial membrane.
The compounds were formulated using a solution containing 75% v/v water and 25% v/v DMSO. Different concentrations of formulated compounds were pipetted into the aphid diet, using a custom built pipetter, at two replications. After application, 5 to 8 adult aphids were placed on the artificial membrane inside the microtiter plate wells. The aphids were then allowed to suck on the treated aphid diet and incubated at about 23+1° C. and about 50+5% relative humidity for 3 days. Aphid mortality and fecundity was then visually assessed.

[4] = tested on: Cotton aphid (Aphis gossypii, mixed life stages); assay: Cotton aphid (Aphis gossypii, mixed life stages) foliar spray on infested cotton plants; conditions: 120 h, after 5 days, read-out: mortality in comparison with untreated controls
Procedure: II.1 Cotton Aphid (Aphis gossypii, Mixed Life Stages)
as §1
Cotton plants at the cotyledon stage were infested with aphids prior to treatment by placing a heavily infested leaf from the main aphid colony on top of each cotyledon. Aphids were allowed to transfer overnight to accomplish an infestation of 80-100 aphids per plant and the host leaf was removed. The infested plants were then sprayed by an automated electrostatic plant sprayer equipped with an atomizing spray nozzle. The plants were dried in the sprayer fume hood, removed from the sprayer, and then maintained in a growth room under fluorescent lighting in a 24-hr photoperiod at 25° C. and 20-40% relative humidity. Aphid mortality on the treated plants, relative to mortality on untreated control plants, was determined after 5 days.

[5] = tested on: Vetch aphid (Megoura viciae); assay: Vetch aphid (Megoura viciae) bean leaf disk microtiter plate test; conditions: foliar, 144 h, test solution 2500 mg/L, bean leaf disks, 6 days
Procedure: II.4 Vetch Aphid (Megoura viciae)
The active compounds were formulated in 1:3 (vol:vol) DMSO:water with different concentrations of formulated compounds.
Bean leaf disks were placed into microtiterplates filled with 0.8% agar-agar and 2.5 ppm OPUS™. The leaf disks were sprayed with 2.5 μl of the test solution and 5 to 8 adult aphids were placed into the microtiterplates which were then closed and kept at 23±1° C. and 50±5% relative humidity under fluorescent light for 6 days. Mortality was assessed on the basis of vital, reproduced aphids. Aphid mortality and fecundity was then visually assessed.

[6] = tested on: Silverleaf whitefly (Bemisia argentifolii, adult); assay: Silverleaf whitefly (Bemisia argentifolii, adult) on sprayed cotton plants; conditions: 72 h, spray on cotton plants, 3 days after treatment, read-out: mortality in comparison with untreated controls
Procedure: II.7 Silverleaf Whitefly (Bemisia argentifolii, Adult)
as §1
Cotton plants at the cotyledon stage (one plant per pot) were sprayed by an automated electrostatic plant sprayer equipped with an atomizing spray nozzle. The plants were dried in the sprayer fume hood and then removed from the sprayer. Each pot was placed into a plastic cup and 10 to 12 whitefly adults (approximately 3-5 days old) were introduced. The insects were collected using an aspirator and 0.6 cm, nontoxic Tygon® tubing (R-3603) connected to a barrier pipette tip. The tip, containing the collected insects, was then gently inserted into the soil containing the treated plant, allowing insects to crawl out of the tip to reach the foliage for feeding. Cups were covered with a reusable screened lid (150-micron mesh polyester screen PeCap from Tetko, Inc.). […] Mortality was assessed 3 days after treatment, compared to untreated control plants.

Cc1c(C(=O)/N=c2\ccn(C)nc2)cnn1CC(F)(F)F [Compound 7, 5-methyl-1-(2,2,2-trifluoro-ethyl)-1H-pyrazole-4-carboxylic acid [1-methyl-1H-pyridazin-(4E)-ylidene]-amide] gave a mortality at 300 ppm [1] of at least 75%, a mortality at 300 ppm [2] of at least 90% and a mortality at 2500 ppm [3] of 100%. The mortality at 300 ppm [4] was at least 75%, the mortality at 2500 µg/mL [5] was at least 90% and the mortality at 300 ppm [6] was at least 75%.

— US9247745B2, “Substituted pyridazines for controlling invertebrate pests” (BASF SE, priority 2010, dated 2016)
